# US20230203060A1 (GENFLEET THERAPEUTICS (SHANGHAI) INC., priority 2020, published 2023)
# Structures can show the parent of a compound that is named as a salt.
# Molecular target: T1, KRAS G12C (Homo sapiens, UniProt P01116, G12C)
# T1 construct: purchased Reactionbiology
# Assay: KRAS G12C NEA-HTRF experiment (SOS1-catalyzed displacement of GDP by GTP)
# Type: biochemical
# Outline: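 His-tagged KRAS G12C preloaded with DY647-GDP was preincubated 15 min at 20 °C with compound, then exchanged with SOS1 (0.2 μM working solution) and GTP (200 μM working solution) for 2 h at 20 °C in the dark. HTRF 665/615 nm ratio with anti-His-Tb was normalised to T0 and no-compound controls; IC50 by four-parameter fit.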
# T1 sequence (P01116 1-188 isoform P01116-2 G12C): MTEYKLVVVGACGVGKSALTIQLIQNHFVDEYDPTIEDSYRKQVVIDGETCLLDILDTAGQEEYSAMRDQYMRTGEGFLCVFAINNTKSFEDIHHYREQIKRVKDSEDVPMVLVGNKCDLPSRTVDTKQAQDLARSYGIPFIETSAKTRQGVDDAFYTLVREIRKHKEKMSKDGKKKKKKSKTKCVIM
row,Structure (SMILES),IC50
1,"C=CC(=O)N1CCN2C(=O)c3c(N4C[C@H](OC)CC4(C)C)nc(-c4c(O)cccc4F)c(F)c3OC[C@H]2C1 (single isomer, unassigned) [Z256a-2]",18 nM
2,"C=CC(=O)N1CCN2C(=O)c3c(N4CC(C#N)CC4(C)C)nc(-c4c(O)cccc4F)c(Cl)c3OC[C@H]2C1 (stereo partly drawn) [Z275, (6aR)-8-acryloyl-1-(4-cyano-2,2-dimethylpyrrolidin-1-yl)-4-chloro-3-(2-fluoro-6-hydroxyphenyl)-6,6a,7,8,9,10-hexahydro-12H-pyrazino[2,1-c]pyrido[3,4-f][1,4]oxazepin-12-one]",21 nM
3,"C=CC(=O)N1CCN2C(=O)c3c(N4C[C@@H](N(C)C)C[C@@H]4C)nc(-c4c(O)cccc4F)c(Cl)c3OC[C@H]2C1 [Z237-2, (6aR)-8-acryloyl-4-chloro-1-((2S,4S)-4-(dimethylamino)-2-methylpyrrolidin-1-yl)-3-(2-fluoro-6-hydroxyphenyl)-6,6a,7,8,9,10-hexahydro-12H-pyrazino[2,1-c]pyrido[3,4-f][1,4]oxazepin-12-one]",65 nM
4,"C=CC(=O)N1CCN2C(=O)c3c(N4C[C@@H](O)CC4(C)C)nc(-c4c(O)cccc4F)c(F)c3OC[C@H]2C1 (single isomer, unassigned) [Z256-1]",26 nM
5,"C=CC(=O)N1CCN2C(=O)c3c(N4CCO[C@](C)(COC)C4)nc(-c4c(O)cccc4F)c(Cl)c3OC[C@H]2C1 (single isomer, unassigned) [Z332-1]",130 nM
6,"C=CC(=O)N1CCN2C(=O)c3c(N4CC(CO)CC4(C)C)nc(-c4c(O)cccc4F)c(Cl)c3OC[C@H]2C1 (stereo partly drawn) [Z240, (6aR)-8-acryloyl-4-chloro-3-(2-fluoro-6-hydroxyphenyl)-1-(4-(hydroxymethyl)-2,2-dimethylpyrrolidin-1-yl)-6,6a,7,8,9,10-hexahydro-12H-pyrazino[2,1-c]pyrido[3,4-f][1,4]oxazepin-12-one]",10 nM
7,"C=CC(=O)N1CCN2C(=O)c3c(N4CCN(S(C)(=O)=O)C[C@@H]4C)nc(-c4c(O)cccc4F)c(Cl)c3OC[C@H]2C1 [Z318-1, (6aR)-8-acryloyl-1-((S)-2-methyl-4-(methylsulfonyl)piperazin-1-yl)-4-chloro-3-(2-fluoro-6-hydroxyphenyl)-6,6a,7,8,9,10-hexahydro-12H-pyrazino[2,1-c]pyrido[3,4-f][1,4]oxazepin-12-one]",37 nM
8,"C=CC(=O)N1CCN2C(=O)c3c(N4C[C@@H](OC)C[C@@H]4C)nc(-c4c(O)cccc4F)c(Cl)c3OC[C@H]2C1 [Z260a, (6aR)-8-acryloyl-4-chloro-3-(2-fluoro-6-hydroxyphenyl)-1-((2S,4S)-4-methoxy-2-methylpyrrolidin-1-yl)-6,6a,7,8,9,10-hexahydro-12H-pyrazino[2,1-c]pyrido[3,4-f][1,4]oxazepin-12-one]",27 nM
9,"C=CC(=O)N1CCN2C(=O)c3c(N4CCCC4(C)C)nc(-c4c(O)cccc4F)c(Cl)c3OC[C@H]2C1 [Z22, (6aR)-8-acryloyl-4-chloro-1-(2,2-dimethylpyrrolidin-1-yl)-3-(2-fluoro-6-hydroxyphenyl)-6,6a,7,8,9,10-hexahydro-12H-pyrazino[2,1-c]pyrido[3,4-f][1,4]oxazepin-12-one]",20 nM
10,C=CC(=O)N1CCN2C(=O)c3c(N4CC(C#N)CC4(C)C)nc(-c4c(O)cccc4F)c(F)c3OC[C@H]2C1 (stereo partly drawn) [Z335],78 nM
11,"C=CC(=O)N1CCN2C(=O)c3c(N4Cc5cn(C)nc5[C@H]4C)nc(-c4c(O)cccc4F)c(Cl)c3OC[C@H]2C1 (single isomer, unassigned) [Z291-1S, trifluoroacetate]",76 nM
12,"C=CC(=O)N1CCN2C(=O)c3c(N4Cc5cn(C)nc5C4(C)C)nc(-c4c(O)cccc4F)c(Cl)c3OC[C@H]2C1 [Z310, (6aR)-8-acryloyl-1-(2,6,6-trimethylpyrrolo[3,4-c]pyrazol-5(2H,4H,6H)-yl)-4-chloro-3-(2-fluoro-6-hydroxyphenyl)-6,6a,7,8,9,10-hexahydro-12H-pyrazino[2,1-c]pyrido[3,4-f][1,4]oxazepin-12-one]",36 nM
13,"C=CC(=O)N1CCN2C(=O)c3c(N4CC(C)(O)CC4(C)C)nc(-c4c(O)cccc4F)c(Cl)c3OC[C@H]2C1 (stereo partly drawn) [Z243, (6aR)-8-acryloyl-4-chloro-3-(2-fluoro-6-hydroxyphenyl)-1-(4-hydroxy-2,2,4-trimethylpyrrolidin-1-yl)-6,6a,7,8,9,10-hexahydro-12H-pyrazino[2,1-c]pyrido[3,4-f][1,4]oxazepin-12-one]",23 nM
14,"C=CC(=O)N1CCN2C(=O)c3c(N4CC(OC)CC4(C)C)nc(-c4c(O)cccc4F)c(Cl)c3OC[C@H]2C1 (stereo partly drawn) [Z244, (6aR)-8-acryloyl-4-chloro-3-(2-fluoro-6-hydroxyphenyl)-1-(4-methoxy-2,2-dimethylpyrrolidin-1-yl)-12-oxo-6,6a,7,8,9,10-hexahydro-12H-pyrazino[2,1-c]pyrido[3,4-f][1,4]oxazepin-12-one]",47 nM
15,"C=CC(=O)N1CCN2C(=O)c3c(N4CCN(C)C(=O)[C@@H]4C)nc(-c4c(O)cccc4F)c(Cl)c3OC[C@H]2C1 [Z311-1, (6aR)-8-actyloyl-4-chloro-1-((S)-2,4-dimethyl-3-oxopiperazin-1-yl)-3-(2-fluoro-6-hydroxyphenyl)-6,6a,7,8,9,10-hexahydro-12H-pyrazino[2,1-c]pyrido[3,4-f][1,4]oxazepin-12-one]",34 nM
16,"C=CC(=O)N1CCN2C(=O)c3c(N4CCN(C(C)=O)C(C)(C)C4)nc(-c4c(O)cccc4F)c(Cl)c3OC[C@H]2C1 [Z315, (6aR)-1-(4-acetyl-3,3-dimethylpiperazin-1-yl)-8-acryloyl-4-chloro-3-(2-fluoro-6-hydroxyphenyl)-6,6a,7,8,9,10-hexahydro-12H-pyrazino[2,1-c]pyrido[3,4-f][1,4]oxazepin-12-one]",33 nM
17,"C=CC(=O)N1CCN2C(=O)c3c(N4CCN(C)C5(CC5)C4)nc(-c4c(O)cccc4F)c(Cl)c3OC[C@H]2C1 [Z83, (6aR)-8-acryloyl-4-chloro-3-(2-fluoro-6-hydroxyphenyl)-1-(4-methyl-4,7-diazaspiro[2 .5]octan-7-yl)-6,6a,7,8,9,10-hexahydro-12H-pyrazino[2,1-c]pyrido[3,4-f][1,4]oxazepin-12 (6aH)-one]",111 nM
18,"C=CC(=O)N1CCN2C(=O)c3c(N4C[C@@H](OC)CC4(C)C)nc(-c4c(O)cccc4F)c(F)c3OC[C@H]2C1 (single isomer, unassigned) [Z256a-1]",41 nM
19,"C=CC(=O)N1CCN2C(=O)c3c(N4CC(O)CC4(C)C)nc(-c4c(O)cccc4F)c(C)c3OC[C@H]2C1 (single isomer, unassigned) [Z336-2]",27 nM
20,"C=CC(=O)N1CCN2C(=O)c3c(N4CC(=O)N(CC)C[C@@H]4C)nc(-c4c(O)cccc4F)c(Cl)c3OC[C@H]2C1 [Z319-1, (6aR)-8-acryloyl-4-chloro-1-((S)-4-ethyl-2-methyl-5-oxopiperazin-1-yl)-3-(2-fluoro-6-hydroxyphenyl)-6,6a,7,8,9,10-hexahydro-12H-pyrazino[2,1-c]pyrido[3,4-f][1,4]oxazepin-12-one]",9 nM
21,"C=CC(=O)N1CCN2C(=O)c3c(N4C[C@H](N(C)C)CC4(C)C)nc(-c4c(O)cccc4F)c(Cl)c3OC[C@H]2C1 (single isomer, unassigned) [Z324-2]",61 nM

# Other lines, results leading:
row,IC50,Structure (SMILES)
1,27 nM,"C=CC(=O)N1CCN2C(=O)c3c(N4C[C@@H](O)CC4(C)C)nc(-c4c(O)ccc(Cl)c4F)c(F)c3OC[C@H]2C1 (single isomer, unassigned) [Z340-1]"
2,68.6 nM,"C=CC(=O)N1CCN2C(=O)c3c(N4CCN(C)C(C)C4C)nc(-c4c(O)cccc4F)c(Cl)c3OC[C@H]2C1 (stereo partly drawn) [Z369, (6aR)-8-acryloyl-4-chloro-3-(2-fluoro-6-hydroxyphenyl)-1-(2,3,4-trimethylpiperazin-1-yl)-6,6a,7,8,9,10-hexahydro-12H-pyrazino[2,1-c]pyrido[3,4-f][1,4]oxazepin-12-one]"
3,35 nM,"C=CC(=O)N1CCN2C(=O)c3c(N4C[C@@H](O)CC4(C)C)nc(-c4c(F)ccc(Cl)c4O)c(F)c3OC[C@H]2C1 (single isomer, unassigned) [Z341-1]"
4,31 nM,"C=CC(=O)N1CCN2C(=O)c3c(N4C[C@@H](O)CC4(C)C)nc(-c4c(F)ccc(F)c4O)c(F)c3OC[C@H]2C1 (single isomer, unassigned) [Z449-1]"
5,101 nM,"C=CC(=O)N1CCN2C(=O)c3c(N4CCN(C)C[C@@H]4C)nc(-c4c(O)ccc(Cl)c4F)c(Cl)c3OC[C@H]2C1 [Z343, (6aR)-8-acryloyl-4-chloro-3-(3-chloro-2-fluoro-6-hydroxyphenyl)-1-((S)-2,4-dimethylpiperazin-1-yl)-6,6a,7,8,9,10-hexahydro-12H-pyrazino[2,1-c]pyrido[3,4-f][1,4]oxazepin-12-one]"
6,41 nM,"C=CC(=O)N1CCN2C(=O)c3c(N4Cc5nn(C)cc5[C@@H]4C)nc(-c4c(O)cccc4F)c(Cl)c3OC[C@H]2C1 (single isomer, unassigned) [Z345-2]"
7,12 nM,"C=CC(=O)N1CCN2C(=O)c3c(N4CC[C@H](OC)[C@@H]4C)nc(-c4c(O)cccc4F)c(Cl)c3OC[C@H]2C1 [Z347-1, (6aR)-8-acryloyl-4-chloro-3-(2-fluoro-6-hydroxyphenyl)-1-((2S,3S)-3-methoxy-2-methylpyrrolidin-1-yl)-6,6a,7,8,9,10-hexahydro-12H-pyrazino[2,1-c]pyrido[3,4-f][1,4]oxazepin-12-one]"
8,74 nM,"C=CC(=O)N1CCN2C(=O)c3c(N4CCN(C)C[C@@H]4C)nc(-c4c(F)ccc(Cl)c4O)c(Cl)c3OC[C@H]2C1 [Z342, (6aR)-8-acryloyl-4-chloro-3-(3-chloro-6-fluoro-2-hydroxyphenyl)-1-((S)-2,4-dimethylpiperazin-1-yl)-6,6a,7,8,9,10-hexahydro-12H-pyrazino[2,1-c]pyrido[3,4-f][1,4]oxazepin-12-one]"
9,39 nM,"C=CC(=O)N1CCN2C(=O)c3c(N4CC[C@@H](OC)[C@@H]4C)nc(-c4c(O)cccc4F)c(Cl)c3OC[C@H]2C1 [Z338-1, (6aR)-8-acryloyl-4-chloro-3-(2-fluoro-6-hydroxyphenyl)-1-((2S,3R)-3-methoxy-2-methylpyrrolidin-1-yl)-6,6a,7,8,9,10-hexahydro-12H-pyrazino[2,1-c]pyrido[3,4-f][1,4]oxazepin-12-one]"
